Format in all cases: cell-based, human
In one test the test system is OPM-2 cells. The test is described as follows: Apoptosis by AnnexinV-FITC/PI staining, OPM-2. The procedure: (§1) The compound according to example 1, hereinafter referred to as GSI15, (compound RH02015SC, Maybridge, Acros Organics, Geel, Belgium) was freshly dissolved as 26 mM stock solution in Dimethylsulfoxide (DMSO). Multiple myeloma therapeutics used were melphalan (marketed as Alkeran®, GlaxoSmithKline, Munich, Germany) and bortezomib (marketed as Velcade®, Janssen-Cilag, Neuss, Germany). Melphalan was freshly dissolved at 10 mg/ml in 0.9% NaCl-solution. Bortezomib was freshly dissolved at 100 ng/ml in 0.9% NaCl solution. Gamma Secretase Inhibitor (GSI) treatment for apoptosis assessment by AnnexinV/PI staining, cell cycle analysis and coculture experiments was performed in 6-well plates. GSI15 stock solution was added directly to the cell suspension. GSI treatment for assaying proliferation was performed in 96-well plates. 10,000 cells per well were seeded in 50 μl medium per well before 50 μl of a 2× solution of GSI15 prediluted in medium were added per well. Melphalan and bortezomib treatment as well as their combination with GSI15 for assaying apoptosis by AnnexinV/PI staining was done in 6-well plates. All inhibitors were added directly to the cells in 6-well plates.
For cell cycle analysis 2×10^5 cells were spun down, medium was aspirated and cells washed with PBS. Cells were then resuspended in 250 μl PBS. 1 ml ice-cold 70% ethanol was added, followed by overnight incubation at −20° C. Cells were spun down, the pellet washed with PBS and then resuspended in 200 μl PBS containing 0.15 mg/ml RNaseA and 30 μg/ml propidium iodide (PI). After 10 minutes incubation in the dark at room temperature, cells were analyzed by flow cytometry. The amount of apoptotic cells was determined by AnnexinV/propidium iodide staining using Human AnnexinV-FITC Kit (Bender Medsystems, Vienna, Austria), according to manufacturer's protocol. Briefly, 2×10^5 cells were spun down and washed with PBS, followed by 10 minutes incubation in binding buffer containing AnnexinV-FITC conjugate. Cells were then spun down again, resuspended in binding buffer containing PI and analyzed by flow cytometry.

Test [1] has as its system LP-1 cells. The test is described as follows: Proliferation assay (CellTiter-Glo), LP-1. The conditions noted are these: LP-1, 48 h treatment. The procedure: Human MM cell lines used were as follows: NCI-H929, OPM-2, LP-1, RPMI-8226, U266 (DSMZ, Braunschweig, Germany). Cell lines were cultured in RPMI 1640 medium (Biochrom, Berlin, Germany) supplemented with 10% heat-inactivated fetal calf serum (FCS, Gibco, Karlsruhe, Germany), 1 mM sodium pyruvate and 100 units/ml penicillin and 100 μg/ml streptomycin (Gibco). Human osteoclasts were obtained as described in the reference of Zavrski I, Krebbel H, Wildemann B, et al. Proteasome inhibitors abrogate osteoclast differentiation and osteoclast function. Biochem Biophys Res Commun. 2005; 333:200-205. Briefly, peripheral blood mononuclear cells (PBMC) were isolated from whole blood of healthy volunteers, using a Ficoll-Hypaque density gradient. The adherent fraction of the isolated mononuclear cells was cultured for 21 days in MEM medium (Sigma-Aldrich Chemie, Taufkirchen, Germany) supplemented with 10% FCS, 100 U/ml penicillin, 100 μg/ml streptomycin, 50 ng/ml M-CSF, and 25 ng/ml RANKL (osteoclastogenic medium), before coculture experiments and treatment with the inventive compounds started. […]
For assaying proliferation/viability of cells CellTiter-Glo Luminescent Cell Viability Assay (Promega, Mannheim, Germany) was used. In this assay the number of viable cells at a given time point is determined by quantification of ATP present, which serves as a measure of metabolically active cells. […]
For orientation: In ATP-based viability assays light output follows the ATP content of the culture.

The subject of test [2] is LP-1 cells. The test is described as follows: Cell cycle analysis (propidium iodide), sub-G1 fraction, LP-1. As to conditions: LP-1, after 72 h. As to the method: as §1, with “10,000 cells per well were seeded in 50 μl medium per well before 50 μl of a 2× solution of GSI15 prediluted in medium were added per well. Melphalan and bortezomib treatment as well as their combination with GSI15 for assaying apoptosis by AnnexinV/PI staining was done in 6-well plates. All inhibitors were added directly to the cells in 6-well plates.” left out
(§2) For cell cycle analysis 2×10^5 cells were spun down, medium was aspirated and cells washed with PBS. […] After 10 minutes incubation in the dark at room temperature, cells were analyzed by flow cytometry. The amount of apoptotic cells was determined by AnnexinV/propidium iodide staining using Human AnnexinV-FITC Kit (Bender Medsystems, Vienna, Austria), according to manufacturer's protocol. […] Cells were then spun down again, resuspended in binding buffer containing PI and analyzed by flow cytometry.

Another test has as its system U266 cells. The test is described as follows: Cell cycle analysis (propidium iodide), U266. As to the method:
as §1, with “10,000 cells per well were seeded in 50 μl medium per well before 50 μl of a 2× solution of GSI15 prediluted in medium were added per well. Melphalan and bortezomib treatment as well as their combination with GSI15 for assaying apoptosis by AnnexinV/PI staining was done in 6-well plates. All inhibitors were added directly to the cells in 6-well plates.” left out
as §2

The next test deals with OBL. In words: Viability assay, OBL. The procedure: (§3) For assaying proliferation/viability of cells CellTiter-Glo Luminescent Cell Viability Assay (Promega, Mannheim, Germany) was used. In this assay the number of viable cells at a given time point is determined by quantification of ATP present, which serves as a measure of metabolically active cells. The assay was carried out according to manufacturer's protocol. Briefly, cells were plated in 96-well plates at 10,000 cells per well in 100 μl medium and treated with indicated amounts of GSI15, with DMSO as solvent control or left untreated. Each treatment was done in four independent replicates in different wells. 24 h and 48 h after start of treatment 30 μl per well were transferred into an opaque-walled plate and lysed using CellTiter-Glo solution. Luminescence was recorded and integrated for two seconds per well. Average values were calculated and normalized to the respective untreated sample.

The subject of the next test is MSC. In words: Viability assay, MSC. The procedure: as §3

In the case of `CC(C)c1ccc(S(=O)(=O)Nc2cccnc2Oc2ccc(Cl)cc2)cc1` [Example 1, N-(2-(4-chlorophenoxy)pyridin-3-yl)-4-isopropylbenzenesulfonamide], the apoptosis induction entry with OPM-2 cells (OPM-2, 40 μM GSI15 alone, 24 h) is “did not induce apoptosis”. In addition, the AnnexinV-FITC/PI staining result in the test on OPM-2 cells (OPM-2, 48 h of treatment) was “decrease of OPM-2 cells negative for both Annexin V-FITC- and PI-staining”. For the same molecule, the “overall amount of apoptotic cells” value in the test on OPM-2 cells (OPM-2 alone, 60 μM GSI15, 48 h) stood at 29%. Besides, in the test on LP-1 cells [1], the “concentration of maximum effect on proliferation” value was 60 µM and the proliferation entry was “dose-dependent reduction of proliferation”. Moreover, the sub-G1 fraction entry in the test with LP-1 cells [2] is “increase in the sub-G1 fraction”. For the same molecule, the “sub-G1 fraction / cell cycle” value with U266 cells is given as “no change was detected”. In the test with OBL, the viability result is “no difference between untreated and GSI15 treated”. Moreover, the viability result in the test on MSC was “no difference between untreated and GSI15 treated”.

The record behind these values is US20110251220A1, “Pharmaceutical compositions comprising gamma secretase modulators” (priority 2008, published 2011).
